The data set relates to Caco-2 permeability, B->A Papp, LC-MS/MS. Briefly: Inhibitors of Bloom's syndrome helicase: Caco-2 Permeability Profiling Assay. The conditions noted are these: active compounds read high. An excerpt:
Survival of cells and the faithful propagation of the genome depend on elaborate mechanisms of detecting and repairing DNA damage. Treatment of advanced cancer relies on radiation therapy or chemotherapy, which kill cancer cells by causing extensive DNA damage. It is often found, that cancer cells develop resistance to therapy through enhanced activity of DNA repair functions; this has led to an increased interest in developing drugs that interfere with DNA repair, which could sensitize cancer cells to conventional therapy. Bloom syndrome helicase (BLM), is important in resolving abnormal DNA structures formed during replication or homologous recombination. Shutting down the expression of BLM leads to chromosomal instability and higher radiation sensitivity in cultured cells. This permeability assay predicts the in vivo absorption of the lead across the intestinal lining by using a Caco-2 cell line and measuring the lead's […]. […] NIH Chemical Genomics Center [NCGC] NIH Molecular Libraries Probe Production Centers Network [MLPCN] MLSCN Grant: MH087284 PI Name: Dr. Opher Gileadi, Structural Genomics Consortium, University of Oxford, UK
1. […] The T0, LY and T90, LY plates are read by FlexStation 3 at excitation of 485 nm and emission of 535 nm to determine LY permeability. […]
Background: Passage across Caco-2 layers is used to estimate intestinal permeability.

On to `O=C(Nc1ccc(F)c(C(F)(F)F)c1)Nc1nnc(-c2ccncc2)s1`, for which the permeability B->A Papp was 1 10^-6 cm/s.

Source of the values: PubChem BioAssay AID504737 (National Center for Advancing Translational Sciences (NCATS), 2011).
